Data taken from patent US20240261296A1, “THERAPEUTIC MODALITIES FOR INHIBITING PANCREATIC BETA CELL IMPAIRMENT AND TREATING DIABETES” (Hadasit Medical Research Serices & Development Ltd., priority 2021, published 2024).

Assays:
Format in all cases: in vivo
db/db mice = test: fasting blood glucose (FBG) in db/db and control mice
Source text: Fasting blood glucose (FBG) concentrations in each of the treated groups were also compared following 4- and 8-weeks treatment as described in Example 9. Results for the 4-weeks treatment of the control mice and the db/db mice are presented in FIGS. 20A-20B respectively and for the 8-weeks treatment of the control mice and the db/db mice are presented in FIGS. 20C-20D, respectively; each treatment is graphically represented as described in Example 9.
FBG concentrations. FBG concentrations in each of the treated groups, vehicle, L-798106, C17 and C20, was compared following 4- and 8-weeks treatment essentially as described in Example 11. Results for the 4-weeks treatment of the control mice and the db/db mice are presented in FIGS. 29A-29B respectively and for the 8-weeks treatment of the control mice and the db/db mice are presented in FIGS. 29C-29D, in which, each treatment is graphically represented as described in Example 14, The numbers of tested mice are as follows: control mice (n=10-15), db/db mice (n=10).

C57Bl/6 mice = test: acute toxicity, IP and oral; settings: for physical or behavioral differences: IP 3 mg/kg or gavage total 9 mg/kg; for differences between experimental groups and saline/DMSO control mice (summary): IP 3 mg/kg/mouse or gavage 9 mg/kg/mouse
Protocol: The safety of compounds C5 and C13 was examined in various in vivo settings, and compared to that of L-798106. The compounds were administered by oral gavage or intraperitoneal (IP) injection to C57Bl/6 mice, and acute toxicity, liver and kidney functions and blood glucose and insulin levels were evaluated. Additional safety experiments and measurements of various blood parameters in diabetic mice are further presented in Example 12 below.
Acute toxicity—IP and oral. For acute toxicity studies, a single IP dose of 3 mg/kg, or three oral doses (total of 9 mg/Kg) were administered. No mortality was observed by the end of the monitoring period (two days for IP administration or four days for oral administration), and all animals survived both modes of administration. No physical or behavioral differences were observed between the different groups and between the two modes of drug administration. Pictures of the sites of IP injection were taken when animals were sacrificed and no damage was observed.
Male mice (n=8 per group) were assigned to the following test groups. A dosage of 3 mg/kg/mouse was administered daily for 3 consecutive days in 200 μl of:
Group A: saline and DMSO carrier (referred to throughout the drawings and examples describing the in vivo experiment as “Control-Saline”, “Vehicle”, “Saline” or “Control”), at the equivalent concentration administered the other test groups (2.5%). Group B: Compound 1b (C5) at 3 mg/Kg: (total of 9 mg/Kg). Group C: Compound 1a (C13) at 3 mg/Kg: (total of 9 mg/Kg). Group D: L-798106 at 3 mg/Kg: (total of 9 mg/Kg).

[1] = liver function parameters in sera of C57Bl/6 mice
Protocol: Blood was collected by cardiac puncture, and 50 μl were collected in EDTA containing tubes for cell blood count (CBC). Further, 200-300 μl of blood was centrifuged and serum was collected for biochemical analysis. C. Effects of orally administered compounds on liver function parameters: The blood levels of albumin, the liver aspartate transaminase (AST) and alanine transaminase (ALT) were measured in the sera obtained from mice 24 h after the third gavage with saline/DMSO (Control Saline); 3 mg/kg/day Compound C5; Compound C13 or the EP3 antagonist L-798106. Results are presented in FIG. 11A for Albumin, FIG. 11B for AST, and FIG. 11C for ALT. […] All p-values >0.05. C. Liver function parameters: Blood levels of albumin (FIG. 14A), liver transaminases: aspartate transaminase (AST, FIG. 14B) and alanine transaminase (ALT, FIG. 14C), as well as bilirubin, were measured in sera obtained from mice 24 h after injection of either Saline/DMSO (Control Saline); C5; C13 or L-798106. […] Typically, this biomarker levels rise with liver injury and help monitor function under drugs treatment. Here a decrease in the levels of ALT in the serum of L-798106- and C13-treated mice, is not considered to indicate liver damage. Bilirubin<1 μM was measured in all test groups.

[2] = lipid parameters in sera of db/db mice; settings: 8 weeks of treatment; for blood triglyceride levels: vs vehicle
Protocol: At the end of the 8 week-long period of treatment as described in Example 9, mice were sacrificed and blood samples were collected, and analyzed for different parameters as detailed below.
Lipid parameters in sera. Mice lipid profiles were assessed by measuring triglycerides and total cholesterol levels in the sera of the treated mice. The results for the triglycerides and cholesterol levels in db/db mice are presented in FIGS. 24A-24B respectively, in which, each treatment is graphically represented as described in Example 9, for each group n=5, data is presented ±SEM. Statistical analysis between each treated-group compared to vehicle was performed p-value for C5=0.06, for C13=0.02 and p >0.05 for the rest of the tests.

[3] = 4 weeks of treatment, vs vehicle
[4] = oral 3 mg/kg/day, 24 h after third gavage

Row | Compound | FBG in db/db mice (db/db mice; [3]) | FBG in control mice (db/db mice; 8 weeks of treatment) | physical or behavioral differences (C57Bl/6 mice) | differences between experimental groups and saline/DMSO control mice (summary) (C57Bl/6 mice) | alanine transaminase (ALT) ([1]; IP, 24 h after injection) | albumin ([1]; IP, 24 h after injection) | aspartate transaminase (AST) ([1]; IP, 24 h after injection) | alanine transaminase (ALT) [1, 4] | albumin [1, 4] | aspartate transaminase (AST) [1, 4] | total cholesterol levels [2] | blood triglyceride levels [2] | FBG in db/db mice (db/db mice; 8 weeks of treatment)
1 | CC[C@H](C)c1ccc(S(=O)(=O)Nc2ccccc2C(=O)N2C[C@@H](C)O[C@@H](C)C2)cc1 [Compound C5, 4-((S)-sec-butyl)-N-(2-((2S,6R)-2,6-dimethylmorpholine-4-carbonyl)phenyl)benzenesulfonamide] | significant decrease in FBG | decrease in FBG in the control mice, although to a much lesser extent | No physical or clinical behavioral differences | no significant differences were observed | no statistically significant differences | no statistically significant differences | no statistically significant differences | no statistically significant differences | no statistically significant differences | no statistically significant differences | No effect on total cholesterol levels | significant reduction | 
2 | CC[C@@H]1CC[C@H](C)N1C(=O)c1cccc(NS(=O)(=O)c2ccc(C)c(F)c2)c1 [Compound C13, N-(3-((2R,5S)-2-ethyl-5-methylpyrrolidine-1-carbonyl)phenyl)-3-fluoro-4-methylbenzenesulfonamide] | significant decrease in FBG | decrease in FBG in the control mice, although to a much lesser extent | No physical or clinical behavioral differences | no significant differences were observed | lower concentrations of alanine transaminase | no statistically significant differences | no statistically significant differences | no statistically significant differences | no statistically significant differences | no statistically significant differences | No effect on total cholesterol levels | significant reduction | significantly more pronounced
3 | COc1ccc(Br)cc1S(=O)(=O)NC(=O)/C=C/c1ccccc1Cc1ccc2ccccc2c1 [Compound L-798106, (2E)-N-[(5-bromo-2-methoxyphenyl)sulfonyl]-3-[2-(2-naphthalenylmethyl)phenyl]-2-propenamide, reference compound] | significant decrease in FBG | decrease in FBG in the control mice, although to a much lesser extent | No physical or clinical behavioral differences | no significant differences were observed | lower concentrations of alanine transaminase | no statistically significant differences | no statistically significant differences | no statistically significant differences | no statistically significant differences | no statistically significant differences | No effect on total cholesterol levels | did not exhibit a statistically-significant reduction | significantly more pronounced
